Experimental data reported in ChEMBL document CHEMBL4507267 (2021).

What was measured:
[1] = target: Ribosomal protein S6 kinase beta-1 (Homo sapiens) (UniProt P23443); details: Compound concentration 1000.0 nM
[2] = target: Mitogen-activated protein kinase kinase kinase 15 (Homo sapiens) (UniProt Q6ZN16); details: Compound concentration 1000.0 nM
[3] = tested on: Proto-oncogene tyrosine-protein kinase receptor Ret (Homo sapiens), P07949 [V804L]; details: Compound concentration 1000.0 nM
[4] = target: Serine/threonine-protein kinase ULK2 (Homo sapiens) (UniProt Q8IYT8); details: Compound concentration 1000.0 nM
[5] = target: Glycogen synthase kinase-3 alpha (Homo sapiens) (UniProt P49840); details: Compound concentration 1000.0 nM
[6] = target: Serine/threonine-protein kinase LATS2 (Homo sapiens) (UniProt Q9NRM7); details: Compound concentration 1000.0 nM
[7] = target: Tyrosine-protein kinase ABL2 (Homo sapiens) (UniProt P42684); details: Compound concentration 1000.0 nM
[8] = tested on: Receptor-type tyrosine-protein kinase FLT3 (Homo sapiens), P36888 [D835Y]; details: Compound concentration 1000.0 nM
[9] = target: Phosphatidylinositol 4,5-bisphosphate 3-kinase catalytic subunit gamma isoform (Homo sapiens) (UniProt P48736); details: Compound concentration 1000.0 nM
[10] = target: Mitogen-activated protein kinase 9 (Homo sapiens) (UniProt P45984); details: Compound concentration 1000.0 nM
[11] = target: GABA-A receptor; anion channel (Rattus norvegicus) (UniProt O09028+P15431+P18506+P18508+P19969+P20236+P23574+P23576+P28471+P28473+P30191+P62813+P63079+P63138+Q91ZM7+Q9ES14); details: Compound concentration 10.0 uM
[12] = target: Mitogen-activated protein kinase 8 (Homo sapiens) (UniProt P45983); details: Compound concentration 1000.0 nM
[13] = target: Protein-tyrosine kinase 6 (Homo sapiens) (UniProt Q13882); details: Compound concentration 1000.0 nM
[14] = tested on: eIF-2-alpha kinase GCN2 (Homo sapiens), Q9P2K8 [S808G]; details: Compound concentration 1000.0 nM
[15] = target: Ribosomal protein S6 kinase alpha-1 (Homo sapiens) (UniProt Q15418); details: Compound concentration 1000.0 nM
[16] = target: High affinity nerve growth factor receptor (Homo sapiens) (UniProt P04629); details: Compound concentration 1000.0 nM
[17] = target: Tyrosine-protein kinase Lyn (Homo sapiens) (UniProt P07948); details: Compound concentration 1000.0 nM
[18] = target: Serine/threonine-protein kinase 33 (Homo sapiens) (UniProt Q9BYT3); details: Compound concentration 1000.0 nM
[19] = target: Dual specificity tyrosine-phosphorylation-regulated kinase 1A (Homo sapiens) (UniProt Q13627); details: Compound concentration 1000.0 nM
[20] = target: Misshapen-like kinase 1 (Homo sapiens) (UniProt Q8N4C8); details: Compound concentration 1000.0 nM
[21] = target: Myosin-IIIa (Homo sapiens) (UniProt Q8NEV4); details: Compound concentration 1000.0 nM
[22] = target: Serine/threonine-protein kinase 32A (Homo sapiens) (UniProt Q8WU08); details: Compound concentration 1000.0 nM
[23] = target: Bone morphogenetic protein receptor type-1A (Homo sapiens) (UniProt P36894); details: Compound concentration 1000.0 nM
[24] = target: Casein kinase I isoform alpha-like (Homo sapiens) (UniProt Q8N752); details: Compound concentration 1000.0 nM
[25] = target: Epithelial discoidin domain-containing receptor 1 (Homo sapiens) (UniProt Q08345); details: Compound concentration 1000.0 nM
[26] = target: Serine/threonine-protein kinase OSR1 (Homo sapiens) (UniProt O95747); details: Compound concentration 1000.0 nM
[27] = tested on: Tyrosine-protein kinase ABL1 (Homo sapiens), P00519 [Q252H]; details: Compound concentration 1000.0 nM
[28] = tested on: Fibroblast growth factor receptor 3 (Homo sapiens), P22607 [G697C]; details: Compound concentration 1000.0 nM
[29] = target: ALK tyrosine kinase receptor (Homo sapiens) (UniProt Q9UM73); details: Compound concentration 1000.0 nM
[30] = target: MAP kinase-interacting serine/threonine-protein kinase 1 (Homo sapiens) (UniProt Q9BUB5); details: Compound concentration 1000.0 nM
[31] = target: Phosphatidylinositol 4-phosphate 5-kinase type-1 alpha (Homo sapiens) (UniProt Q99755); details: Compound concentration 1000.0 nM
[32] = target: Serine/threonine-protein kinase PLK3 (Homo sapiens) (UniProt Q9H4B4); details: Compound concentration 1000.0 nM
[33] = target: Wee1-like protein kinase 2 (Homo sapiens) (UniProt P0C1S8); details: Compound concentration 1000.0 nM
[34] = tested on: Mast/stem cell growth factor receptor Kit (Homo sapiens), P10721 [D816H]; details: Compound concentration 1000.0 nM
[35] = target: Muscarinic acetylcholine receptor M4 (Homo sapiens) (UniProt P08173); details: Compound concentration 10.0 uM
[36] = target: Tyrosine-protein kinase Yes (Homo sapiens) (UniProt P07947); details: Compound concentration 1000.0 nM
[37] = target: Tyrosine-protein kinase Tec (Homo sapiens) (UniProt P42680); details: Compound concentration 1000.0 nM
[38] = target: Mitogen-activated protein kinase kinase kinase 2 (Homo sapiens) (UniProt Q9Y2U5); details: Compound concentration 1000.0 nM
[39] = target: SRSF protein kinase 3 (Homo sapiens) (UniProt Q9UPE1); details: Compound concentration 1000.0 nM
[40] = target: D(4) dopamine receptor (Homo sapiens) (UniProt P21917); details: Compound concentration 10.0 uM
[41] = target: 5-hydroxytryptamine receptor 2A (Homo sapiens) (UniProt P28223); details: Compound concentration 10.0 uM
[42] = tested on: Tyrosine-protein kinase ABL1 (Homo sapiens), P00519 [Q252H]; details: Compound concentration 1000.0 nM; remark: listed apart in the source
[43] = target: Inhibitor of nuclear factor kappa-B kinase subunit beta (Homo sapiens) (UniProt O14920); details: Compound concentration 1000.0 nM
[44] = target: Serine/threonine-protein kinase PLK4 (Homo sapiens) (UniProt O00444); details: Compound concentration 1000.0 nM

5-hydroxytryptamine receptor 2A (Homo sapiens), sequence (P28223 whole entry): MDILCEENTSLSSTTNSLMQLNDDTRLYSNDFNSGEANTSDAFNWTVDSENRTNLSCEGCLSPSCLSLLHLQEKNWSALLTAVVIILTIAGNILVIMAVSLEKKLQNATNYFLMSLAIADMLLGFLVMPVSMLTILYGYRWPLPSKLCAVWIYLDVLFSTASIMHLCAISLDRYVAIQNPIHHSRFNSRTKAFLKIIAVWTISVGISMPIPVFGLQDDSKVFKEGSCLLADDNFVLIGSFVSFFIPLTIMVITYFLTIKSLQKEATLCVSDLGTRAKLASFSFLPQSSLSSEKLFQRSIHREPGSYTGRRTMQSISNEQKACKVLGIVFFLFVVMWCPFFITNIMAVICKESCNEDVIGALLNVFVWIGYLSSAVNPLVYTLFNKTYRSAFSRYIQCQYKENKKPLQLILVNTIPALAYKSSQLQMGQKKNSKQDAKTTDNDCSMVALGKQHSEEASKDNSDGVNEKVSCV
Epithelial discoidin domain-containing receptor 1 (Homo sapiens), sequence (Q08345 whole entry, the tested form may be a part): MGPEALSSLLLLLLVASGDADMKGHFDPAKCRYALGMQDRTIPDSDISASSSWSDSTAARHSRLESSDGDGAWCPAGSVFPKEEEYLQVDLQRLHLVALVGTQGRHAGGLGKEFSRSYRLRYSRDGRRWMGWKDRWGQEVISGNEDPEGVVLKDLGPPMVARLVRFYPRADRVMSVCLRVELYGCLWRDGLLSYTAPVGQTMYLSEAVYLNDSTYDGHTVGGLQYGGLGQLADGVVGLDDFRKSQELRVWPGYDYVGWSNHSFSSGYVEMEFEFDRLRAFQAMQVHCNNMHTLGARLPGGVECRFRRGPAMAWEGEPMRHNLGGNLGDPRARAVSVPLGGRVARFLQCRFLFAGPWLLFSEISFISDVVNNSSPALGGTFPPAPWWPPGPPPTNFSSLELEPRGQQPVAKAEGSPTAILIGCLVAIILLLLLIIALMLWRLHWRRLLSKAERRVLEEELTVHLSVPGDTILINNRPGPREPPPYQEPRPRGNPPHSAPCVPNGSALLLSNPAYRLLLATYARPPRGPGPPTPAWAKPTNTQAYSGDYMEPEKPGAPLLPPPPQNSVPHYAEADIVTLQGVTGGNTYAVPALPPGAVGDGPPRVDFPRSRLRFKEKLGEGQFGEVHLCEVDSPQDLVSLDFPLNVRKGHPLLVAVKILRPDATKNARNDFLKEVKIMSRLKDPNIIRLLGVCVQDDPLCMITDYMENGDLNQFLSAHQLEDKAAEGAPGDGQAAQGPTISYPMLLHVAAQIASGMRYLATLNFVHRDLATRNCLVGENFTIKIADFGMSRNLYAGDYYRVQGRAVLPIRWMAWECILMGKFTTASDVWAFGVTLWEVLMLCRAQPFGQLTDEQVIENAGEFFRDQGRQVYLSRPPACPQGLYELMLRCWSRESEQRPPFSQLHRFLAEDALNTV
Myosin-IIIa (Homo sapiens), sequence (Q8NEV4 whole entry): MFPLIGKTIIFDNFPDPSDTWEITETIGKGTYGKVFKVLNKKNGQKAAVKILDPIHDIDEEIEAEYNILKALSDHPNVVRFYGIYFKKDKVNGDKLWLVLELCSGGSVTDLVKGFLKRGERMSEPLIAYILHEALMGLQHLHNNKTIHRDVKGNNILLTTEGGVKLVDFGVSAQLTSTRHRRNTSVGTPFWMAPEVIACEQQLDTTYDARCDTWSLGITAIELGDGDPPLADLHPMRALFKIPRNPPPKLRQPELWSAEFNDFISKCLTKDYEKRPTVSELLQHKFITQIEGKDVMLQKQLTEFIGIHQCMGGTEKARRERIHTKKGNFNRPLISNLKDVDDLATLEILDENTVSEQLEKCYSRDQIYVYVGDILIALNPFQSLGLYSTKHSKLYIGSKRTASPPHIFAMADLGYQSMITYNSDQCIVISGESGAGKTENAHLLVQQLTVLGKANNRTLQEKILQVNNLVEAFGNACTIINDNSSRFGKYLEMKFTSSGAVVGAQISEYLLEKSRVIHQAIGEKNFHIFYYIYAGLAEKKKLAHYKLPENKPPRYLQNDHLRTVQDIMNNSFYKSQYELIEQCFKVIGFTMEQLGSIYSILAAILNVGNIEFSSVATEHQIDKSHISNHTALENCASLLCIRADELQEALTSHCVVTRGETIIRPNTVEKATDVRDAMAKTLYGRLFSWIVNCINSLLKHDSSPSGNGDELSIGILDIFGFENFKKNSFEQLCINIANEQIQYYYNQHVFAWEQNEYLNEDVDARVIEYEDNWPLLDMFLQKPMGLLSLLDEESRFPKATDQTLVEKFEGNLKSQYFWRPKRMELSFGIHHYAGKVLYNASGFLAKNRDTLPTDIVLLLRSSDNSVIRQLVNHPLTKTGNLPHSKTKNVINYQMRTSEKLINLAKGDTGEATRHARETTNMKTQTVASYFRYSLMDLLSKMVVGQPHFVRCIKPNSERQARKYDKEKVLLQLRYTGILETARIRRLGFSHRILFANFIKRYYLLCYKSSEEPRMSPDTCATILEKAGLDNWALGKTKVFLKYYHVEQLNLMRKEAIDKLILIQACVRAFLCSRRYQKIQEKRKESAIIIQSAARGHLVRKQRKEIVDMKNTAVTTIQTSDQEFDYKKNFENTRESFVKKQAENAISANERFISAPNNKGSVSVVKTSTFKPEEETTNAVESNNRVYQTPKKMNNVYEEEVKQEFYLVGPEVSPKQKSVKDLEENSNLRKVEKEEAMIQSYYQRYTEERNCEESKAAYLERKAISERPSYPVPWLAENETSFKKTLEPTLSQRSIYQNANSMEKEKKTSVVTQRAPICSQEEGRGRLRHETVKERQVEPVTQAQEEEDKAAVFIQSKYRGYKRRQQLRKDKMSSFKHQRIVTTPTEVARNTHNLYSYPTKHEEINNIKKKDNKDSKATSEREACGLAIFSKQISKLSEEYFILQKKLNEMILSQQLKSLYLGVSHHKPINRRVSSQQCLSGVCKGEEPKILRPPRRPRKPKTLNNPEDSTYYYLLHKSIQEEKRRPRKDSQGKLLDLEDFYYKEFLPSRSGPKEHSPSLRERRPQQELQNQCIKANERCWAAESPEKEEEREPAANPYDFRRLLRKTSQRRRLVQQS
Protein-tyrosine kinase 6 (Homo sapiens), sequence (Q13882 whole entry, looked up): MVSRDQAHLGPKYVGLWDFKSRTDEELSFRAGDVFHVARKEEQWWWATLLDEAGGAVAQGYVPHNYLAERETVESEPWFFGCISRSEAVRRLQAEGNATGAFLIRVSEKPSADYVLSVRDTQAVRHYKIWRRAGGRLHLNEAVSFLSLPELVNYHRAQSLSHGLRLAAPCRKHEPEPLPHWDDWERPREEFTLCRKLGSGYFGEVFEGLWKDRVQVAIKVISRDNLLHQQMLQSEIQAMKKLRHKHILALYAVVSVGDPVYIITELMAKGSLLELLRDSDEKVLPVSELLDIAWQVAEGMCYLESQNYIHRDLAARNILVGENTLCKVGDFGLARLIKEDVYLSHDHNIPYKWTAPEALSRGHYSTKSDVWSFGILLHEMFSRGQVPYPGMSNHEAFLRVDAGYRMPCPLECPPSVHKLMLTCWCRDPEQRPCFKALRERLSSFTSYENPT
Proto-oncogene tyrosine-protein kinase receptor Ret (Homo sapiens), P07949 [V804L], sequence (P07949 whole entry V804L): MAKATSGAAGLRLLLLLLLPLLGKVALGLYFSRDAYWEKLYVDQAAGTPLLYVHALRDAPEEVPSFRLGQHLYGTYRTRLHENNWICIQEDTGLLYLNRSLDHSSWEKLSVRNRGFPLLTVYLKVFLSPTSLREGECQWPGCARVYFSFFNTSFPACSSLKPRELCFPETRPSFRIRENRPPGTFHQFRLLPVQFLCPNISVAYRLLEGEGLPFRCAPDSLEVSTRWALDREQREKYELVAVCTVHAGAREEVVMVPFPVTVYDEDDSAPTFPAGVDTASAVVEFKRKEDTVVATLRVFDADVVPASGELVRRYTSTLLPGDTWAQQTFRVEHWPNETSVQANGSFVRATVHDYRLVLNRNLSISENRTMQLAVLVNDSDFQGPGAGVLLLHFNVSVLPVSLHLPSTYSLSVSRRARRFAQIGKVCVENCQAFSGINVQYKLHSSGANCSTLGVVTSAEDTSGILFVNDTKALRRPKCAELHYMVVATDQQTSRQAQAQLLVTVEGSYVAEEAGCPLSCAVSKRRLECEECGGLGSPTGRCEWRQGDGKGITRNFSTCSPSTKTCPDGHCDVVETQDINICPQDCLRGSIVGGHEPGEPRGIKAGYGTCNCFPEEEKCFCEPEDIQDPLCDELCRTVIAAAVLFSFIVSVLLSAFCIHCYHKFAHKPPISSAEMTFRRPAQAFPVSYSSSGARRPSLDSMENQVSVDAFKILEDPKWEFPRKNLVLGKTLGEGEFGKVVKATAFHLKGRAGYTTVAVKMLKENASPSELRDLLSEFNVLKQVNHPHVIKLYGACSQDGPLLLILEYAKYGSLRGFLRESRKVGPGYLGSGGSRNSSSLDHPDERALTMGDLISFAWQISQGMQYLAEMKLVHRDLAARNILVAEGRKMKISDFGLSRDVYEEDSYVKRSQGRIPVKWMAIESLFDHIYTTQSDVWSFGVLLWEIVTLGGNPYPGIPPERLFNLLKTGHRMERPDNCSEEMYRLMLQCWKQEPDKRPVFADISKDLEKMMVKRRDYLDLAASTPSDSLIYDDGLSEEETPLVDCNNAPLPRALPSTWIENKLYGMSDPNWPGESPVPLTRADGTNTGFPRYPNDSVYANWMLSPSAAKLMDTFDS
Mitogen-activated protein kinase 8 (Homo sapiens), sequence (P45983 whole entry): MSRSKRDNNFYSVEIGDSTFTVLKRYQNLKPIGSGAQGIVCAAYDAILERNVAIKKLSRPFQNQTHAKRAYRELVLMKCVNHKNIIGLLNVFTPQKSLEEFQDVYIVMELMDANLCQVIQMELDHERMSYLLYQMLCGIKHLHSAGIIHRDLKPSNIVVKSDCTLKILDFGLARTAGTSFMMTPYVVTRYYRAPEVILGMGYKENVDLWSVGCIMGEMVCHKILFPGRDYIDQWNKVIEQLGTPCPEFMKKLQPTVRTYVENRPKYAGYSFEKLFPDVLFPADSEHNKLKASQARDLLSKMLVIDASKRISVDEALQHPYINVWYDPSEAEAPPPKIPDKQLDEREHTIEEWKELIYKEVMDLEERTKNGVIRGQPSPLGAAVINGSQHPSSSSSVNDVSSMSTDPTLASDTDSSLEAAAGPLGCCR

Compound: Cc1c(NC(=O)c2cc(C(N)=O)nc3cc(F)ccc23)c(C(F)(F)F)nn1Cc1ccc(C(C)(C)C)cc1 [BAY-588]
- residual activity [1]: 100%
- residual activity [2]: 95%
- residual activity [3]: 83%
- residual activity [4]: 100%
- residual activity [5]: 98%
- residual activity [6]: 84%
- residual activity [7]: 87%
- residual activity [8]: 100%
- residual activity [9]: 100%
- residual activity [10]: 100%
- inhibition [11]: 7.34%
- residual activity [12]: 100%
- residual activity [13]: 100%
- residual activity [14]: 56%
- residual activity [15]: 100%
- residual activity [16]: 89%
- residual activity [17]: 99%
- residual activity [18]: 96%
- residual activity [19]: 100%
- residual activity [20]: 90%
- residual activity [21]: 100%
- residual activity [22]: 100%
- residual activity [23]: 100%
- residual activity [24]: 93%
- residual activity [25]: 95%
- residual activity [26]: 100%
- residual activity [27]: 84%
- residual activity [28]: 97%
- residual activity [29]: 96%
- residual activity [30]: 100%
- residual activity [31]: 100%
- residual activity [32]: 94%
- residual activity [33]: 96%
- residual activity [34]: 100%
- inhibition [35]: 8.69%
- residual activity [36]: 100%
- residual activity [37]: 94%
- residual activity [38]: 100%
- residual activity [39]: 100%
- inhibition [40]: 4.93%
- inhibition [41]: -0.878%
- residual activity [42]: 100%
- residual activity [43]: 100%
- residual activity [44]: 100%

Compound: Cc1c(NC(=O)c2cc(C(N)=O)nc3cc(F)ccc23)c(C(F)(F)F)nn1Cc1ccc(C#N)cc1 [BAY-876]
- residual activity [1]: 80%
- residual activity [2]: 100%
- residual activity [3]: 100%
- residual activity [4]: 81%
- residual activity [5]: 100%
- residual activity [6]: 72%
- residual activity [7]: 74%
- residual activity [8]: 92%
- residual activity [9]: 80%
- residual activity [10]: 77%
- inhibition [11]: 5.66%
- residual activity [12]: 80%
- residual activity [13]: 100%
- residual activity [14]: 100%
- residual activity [15]: 78%
- residual activity [16]: 83%
- residual activity [17]: 100%
- residual activity [18]: 80%
- residual activity [19]: 84%
- residual activity [20]: 89%
- residual activity [21]: 91%
- residual activity [22]: 89%
- residual activity [23]: 84%
- residual activity [24]: 100%
- residual activity [25]: 1.5%
- residual activity [26]: 67%
- residual activity [27]: 100%
- residual activity [28]: 89%
- residual activity [29]: 87%
- residual activity [30]: 68%
- residual activity [31]: 100%
- residual activity [32]: 84%
- residual activity [33]: 100%
- residual activity [34]: 60%
- inhibition [35]: -4.15%
- residual activity [36]: 66%
- residual activity [37]: 85%
- residual activity [38]: 85%
- residual activity [39]: 100%
- inhibition [40]: 15.1%
- inhibition [41]: 14.3%
- residual activity [42]: 81%
- residual activity [43]: 92%
- residual activity [44]: 100%
